Reference: patent publication US11319306B2, “Compositions and methods for treating neurodegenerative diseases” (Azevan Pharmaceuticals, Inc., priority 2014, dated 2022)

Target: T1, human V1a receptor (Homo sapiens, UniProt P37288)
T1 construct: host or cells: CHO cells (hV1a cell line)
Experiment: Human vasopressin V1a receptor binding assay (3H-AVP competition, hV1a CHO cells)
Settings: 3H-AVP competition, CHO cells expressing human V1a; for Ki: read-out: V1a Ki; for IC50: read-out: V1a Binding Affinity IC50
Procedure: Human vasopression V1a receptor binding assay. A cell line expressing the human V1a receptor in CHO cells (henceforth referred to as the hV1a cell line) was obtained from Dr. Michael Brownstein, NIMH, Bethesda, Md., USA. The hV1a cDNA sequence is described by Thibonnier et al., Journal of Biological Chemistry, 269, 3304-3310 (1994), and the expression method was the same as described by Morel et al. (1992). The hV1a cell line was grown in alpha-MEM with 10% fetal bovine serum and 250 ug/ml G418 (Gibco, Grand Island, N.Y., USA). For competitive binding assay, hV1a cells were plated into 6-well culture plate at 1:10 dilution from a confluency flask, and maintained in culture for at least two days. Culture medium was then removed, cells were washed with 2 ml binding buffer (25 mM Hepes, 0.25% BSA, 1×DMEM, PH=7.0). To each well, 990 μl binding buffer containing InM 3H-AVP was added, and followed by 10 μl series diluted Example compounds dissolved in DMSO. […] 100 nM cold AVP (Sigma) was used to assess non-specific binding. Cells were incubated for 45 minutes at 37° C., assay mixture was removed and each well was washed three times with PBS (pH=7.4). 1 ml 2% SDS was added per well and plates were let sit for 30 minutes. The whole content in a well was transferred to a scintillation vial. Each well was rinsed with 0.5 ml PBS which was then added to the corresponding vial. Scintillation fluid (Ecoscint, National Diagnostics, Atlanta, Ga.) was then added at 3 ml per vial. Samples were counted in a liquid scintillation counter (Beckman LS3801). IC50 values were calculated by Prism Curve fitting software.
All of the alkanedioic esters and amides exemplified in the foregoing examples dissolved in DMSO were tested in this assay. Binding curves were generated according to methods described by Thibonnier et al. (1994). [^3H]-AVP was added to the hV1a cell cultures followed by 10-fold dilutions of each test compound.

T1 sequence (P37288 whole entry): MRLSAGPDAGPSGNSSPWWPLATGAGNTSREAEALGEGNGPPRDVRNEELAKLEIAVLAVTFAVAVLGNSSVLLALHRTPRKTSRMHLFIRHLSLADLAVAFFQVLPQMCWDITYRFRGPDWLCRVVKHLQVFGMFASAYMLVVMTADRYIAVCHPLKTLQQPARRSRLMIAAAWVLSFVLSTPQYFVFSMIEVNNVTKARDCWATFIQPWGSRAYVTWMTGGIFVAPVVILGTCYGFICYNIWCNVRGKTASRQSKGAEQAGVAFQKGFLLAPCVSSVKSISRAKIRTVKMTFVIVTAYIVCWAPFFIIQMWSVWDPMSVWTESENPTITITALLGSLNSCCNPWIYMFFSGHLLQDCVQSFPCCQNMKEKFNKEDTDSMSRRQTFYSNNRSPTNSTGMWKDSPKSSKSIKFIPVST

SMILES	Ki [nM]	IC50 [nM]
O=C(NCc1cccc(C(F)(F)F)c1)C(C(=O)N1CCN(CCc2ccccc2)CC1)N1C(=O)[C@@H](N2C(=O)OC[C@@H]2c2ccccc2)[C@H]1/C=C/c1ccccc1 (mixture of isomers) [Example 38]	85	–
CC(C)N1CCN(C(=O)C(C(=O)NCc2cccc(C(F)(F)F)c2)N2C(=O)[C@@H](N3C(=O)OC[C@@H]3c3ccccc3)[C@H]2/C=C/c2ccccc2)CC1 (mixture of isomers) [Example 41]	18.2	–
O=C(NCc1cccc(C(F)(F)F)c1)C(C(=O)N1CCN(C2CCCCC2)CC1)N1C(=O)[C@@H](N2C(=O)OC[C@@H]2c2ccccc2)[C@H]1/C=C/c1ccccc1 (mixture of isomers) [Example 42]	26.4	–
O=C(NC(c1ccccc1)C(F)(F)F)C(CC(=O)N1CCC(N2CCCCC2)CC1)N1C(=O)C(N2C(=O)OCC2c2ccccc2)C1C=Cc1ccccc1 (single isomer, unassigned) [Example 623]	0.85	–
O=C(NC(c1ccccc1)C(F)(F)F)C(CC(=O)N1CCC(N2CCCCC2)CC1)N1C(=O)C(N2C(=O)OCC2c2ccccc2)C1C=Cc1ccccc1 (single isomer, unassigned) [Example 626]	0.27	–
CC(C)(C)OC(=O)C(C(=O)NCc1cccc(C(F)(F)F)c1)N1C(=O)C(N2C(=O)OCC2c2ccccc2)C1C=Cc1ccccc1 [Example 18, 2(RS)-(tert-Butoxycarbonyl)-2-[3(S)-(4(S)-phenyloxazolidin-2-on-3-yl)-4(R)-(2-styryl)azetidin-2-on-1-yl]acetic acid N-(3-trifluoromethylbenzyl)amide]	–	35
CC(C)(C)OC(=O)CC(C(=O)NCc1cccc(C(F)(F)F)c1)N1C(=O)C(N2C(=O)OCC2c2ccccc2)C1C=Cc1ccccc1 [Example 19, 2(S)-(tert-Butoxycarbonylmethyl)-2-[3(S)-(4(S)-phenyloxazolidin-2-on-3-yl)-4(R)-(2-styryl)azetidin-2-on-1-yl]acetic acid N-(3-trifluoromethylbenzyl)amide]	–	35
CC(C)(C)OC(=O)CCC(C(=O)NCc1cccc(C(F)(F)F)c1)N1C(=O)C(N2C(=O)OCC2c2ccccc2)C1C=Cc1ccccc1 [Example 20, 2(S)-(tert-Butoxycarbonylethyl)-2-[3(S)-(4(S)-phenyloxazolidin-2-on-3-yl)-4(R)-(2-styryl)azetidin-2-on-1-yl]acetic acid N-(3-trifluoromethylbenzyl)amide]	–	35
O=C(NCc1cccc(C(F)(F)F)c1)C(C(=O)N1CCC(N2CCCCC2)CC1)N1C(=O)C(N2C(=O)OCC2c2ccccc2)C1C=Cc1ccccc1 (stereo not shown) [Example 37]	3.39	5.5
O=C(NCc1cccc(C(F)(F)F)c1)C(C(=O)NC1CCN(Cc2ccccc2)CC1)N1C(=O)C(N2C(=O)OCC2c2ccccc2)C1C=Cc1ccccc1 (stereo not shown) [Example 39]	13.3	23
CCCCN1CCN(C(=O)C(C(=O)NCc2cccc(C(F)(F)F)c2)N2C(=O)C(N3C(=O)OCC3c3ccccc3)C2C=Cc2ccccc2)CC1 (stereo not shown) [Example 40]	6.5	11
O=C(NCc1cccc(C(F)(F)F)c1)C(C(=O)N1CCC(CCN2CCCCC2)CC1)N1C(=O)C(N2C(=O)OCC2c2ccccc2)C1C=Cc1ccccc1 (stereo not shown) [Example 42A]	1.17	1.77
O=C(CC(C(=O)NCc1cccc(C(F)(F)F)c1)N1C(=O)C(N2C(=O)OCC2c2ccccc2)C1C=Cc1ccccc1)NC1CCN(Cc2ccccc2)CC1 (stereo not shown) [Example 63]	1.13	1.84
O=C(NCc1cccc(C(F)(F)F)c1)[C@H](CC(=O)N1CCCN(Cc2ccccc2)CC1)N1C(=O)[C@@H](N2C(=O)OC[C@@H]2c2ccccc2)[C@H]1/C=C/c1ccccc1 [Example 82]	5.12	–
O=C(CC(C(=O)NCc1cccc(C(F)(F)F)c1)N1C(=O)C(N2C(=O)OCC2c2ccccc2)C1C=Cc1ccccc1)NC1CCN(Cc2ccccc2)C1 (stereo not shown) [Example 85]	3.6	5.87
O=C(NCc1cccc(C(F)(F)F)c1)C(CC(=O)N1CCC(CCN2CCCCC2)CC1)N1C(=O)C(N2C(=O)OCC2c2ccccc2)C1C=Cc1ccccc1 (stereo not shown) [Example 86A]	6	9.79
O=C(CC[C@@H](C(=O)NCc1cccc(C(F)(F)F)c1)N1C(=O)[C@@H](N2C(=O)OC[C@@H]2c2ccccc2)[C@H]1/C=C/c1ccccc1)NCCN1CCCCC1 [Example 87]	–	15
O=C(NCc1cccc(C(F)(F)F)c1)[C@H](CCC(=O)N1CCN(N2CCCC2)CC1)N1C(=O)[C@@H](N2C(=O)OC[C@@H]2c2ccccc2)[C@H]1/C=C/c1ccccc1 [Example 91]	1.99	3.24
O=C(NCc1cccc(C(F)(F)F)c1)C(CCC(=O)N1CCN(Cc2ccccc2)CC1)N1C(=O)C(N2C(=O)OCC2c2ccccc2)C1C=Cc1ccccc1 (stereo not shown) [Example 95]	1.08	1.76

SMILES	Ki [nM]	IC50 [nM]
O=C(NCc1cccc(C(F)(F)F)c1)C(CCC(=O)N1CCN(Cc2ccc3c(c2)OCO3)CC1)N1C(=O)C(N2C(=O)OCC2c2ccccc2)C1C=Cc1ccccc1 (stereo not shown) [Example 96]	2.66	4.35
O=C(NCc1cccc(C(F)(F)F)c1)C(CCC(=O)N1CCN(CCC2CCCCC2)CC1)N1C(=O)C(N2C(=O)OCC2c2ccccc2)C1C=Cc1ccccc1 (stereo not shown) [Example 111]	0.82	1.31
O=C(NCc1cccc(C(F)(F)F)c1)C(CCC(=O)N1CCN(CCN2CCOCC2)CC1)N1C(=O)C(N2C(=O)OCC2c2ccccc2)C1C=Cc1ccccc1 (stereo not shown) [Example 112]	0.8	1.34
O=C(NCc1cccc(C(F)(F)F)c1)C(CCC(=O)N1CCC(CCN2CCCCC2)CC1)N1C(=O)C(N2C(=O)OCC2c2ccccc2)C1C=Cc1ccccc1 (stereo not shown) [Example 120A]	9.9	16.2
CCCN1CCN(C(=O)CCC(C(=O)NCc2cccc(C(F)(F)F)c2)N2C(=O)C(N3C(=O)OCC3c3ccccc3)C2C=Cc2ccccc2)CC1 (stereo not shown) [Example 120B]	1.79	2.93
O=C(NCc1cccc(C(F)(F)F)c1)C(CCC(=O)N1CCN(CC2CCCCC2)CC1)N1C(=O)C(N2C(=O)OCC2c2ccccc2)C1C=Cc1ccccc1 (stereo not shown) [Example 120]	0.46	0.75
O=C(NC1(c2ccccc2)CCCC1)C(CC(=O)N1CCC(N2CCCCC2)CC1)N1C(=O)C(N2C(=O)OCC2c2ccccc2)C1C=Cc1ccccc1 (stereo not shown) [Example 132D]	3.9	6.3
O=C(NCc1cccc(C(F)(F)F)c1)C(CC(=O)N1CCC(CCN2CCCCC2)CC1)N1C(=O)C(N2C(=O)OCC2c2ccccc2)C1C=Cc1ccccc1 (stereo not shown) [Example 134A]	7.9	12.9
O=C(NCc1cccc(C(F)(F)F)c1)[C@@H](CC(=O)N1CCN(N2CCCC2)CC1)N1C(=O)[C@@H](N2C(=O)OC[C@@H]2c2ccccc2)[C@H]1/C=C/c1ccccc1 [Example 134B]	27.5	44.8
O=C(CC(C(=O)NCc1cccc(C(F)(F)F)c1)N1C(=O)C(N2C(=O)OCC2c2ccccc2)C1C=Cc1ccccc1)NC1CCN(Cc2ccccc2)CC1 (stereo not shown) [Example 134C]	5.58	9.1
O=C(NCc1cccc(C(F)(F)F)c1)C(CC(=O)N1CCC(CN2CCCCC2)CC1)N1C(=O)C(N2C(=O)OCC2c2ccccc2)C1C=Cc1ccccc1 (stereo not shown) [Example 134G]	3.7	6
CC(C)(NC(=O)C(CC(=O)N1CCC(N2CCCCC2)CC1)N1C(=O)C(N2C(=O)OCC2c2ccccc2)C1C=Cc1ccccc1)c1ccccc1 (stereo not shown) [Example 134J]	3.25	5.29
O=C(NCc1cccc(C(F)(F)F)c1)C(CCC(=O)N1CCN(CCc2ccccc2)CC1)N1C(=O)C(N2C(=O)OCC2c2ccccc2)C1C=Cc1ccccc1 (stereo not shown) [Example 136]	33	11
CCCCN1CCN(C(=O)CCC(C(=O)NCc2cccc(C(F)(F)F)c2)N2C(=O)C(N3C(=O)OCC3c3ccccc3)C2C=Cc2ccccc2)CC1 (stereo not shown) [Example 137]	10.5	17
CC(C)N1CCN(C(=O)CCC(C(=O)NCc2cccc(C(F)(F)F)c2)N2C(=O)C(N3C(=O)OCC3c3ccccc3)C2C=Cc2ccccc2)CC1 (stereo not shown) [Example 138]	13	21
O=C(NCc1cccc(C(F)(F)F)c1)C(CCC(=O)N1CCN(C2CCCCC2)CC1)N1C(=O)C(N2C(=O)OCC2c2ccccc2)C1C=Cc1ccccc1 (stereo not shown) [Example 139]	5.84	9.5
O=C(NCc1cc(F)cc(F)c1)[C@H](CCC(=O)N1CCN(C2CCCCC2)CC1)N1C(=O)[C@@H](N2C(=O)OC[C@@H]2c2ccccc2)[C@H]1/C=C/c1ccccc1 [Example 185]	0.82	–
COc1cccc(C(C)NC(=O)C(CCC(=O)N2CCN(C3CCCCC3)CC2)N2C(=O)C(N3C(=O)OCC3c3ccccc3)C2C=Cc2ccccc2)c1 (stereo not shown) [Example 203]	1.5	2.46
CCN1CCC[C@H]1CNC(=O)CC[C@@H](C(=O)N[C@@H]1CCCc2ccccc21)N1C(=O)[C@@H](N2C(=O)OC[C@@H]2c2ccccc2)[C@H]1/C=C/c1ccccc1 [Example 221AI]	–	~50
